The first assay has as its target CVF-Bb complex (Homo sapiens (Human), UniProt P00751). As to the kind of experiment: biochemical.
Conditions: not given
In kind it is biochemical. Here is the method: CVF-Bb complex, prepared from purified cobra venom factor, (3 nM) is incubated with a compound of the disclosure at various concentrations for 10 minutes at room temperature in PBS (pH 7.4) containing 10 mM MgCl2 and 0.05% (w/v) CHAPS. Human Complement C3 substrate is added to a final concentration of 1 μM. After 1 hour incubation at room temperature, the enzyme reaction is stopped by addition of a cocktail of concentrated pan-protease inhibitors. The product of the reaction, C3a, is quantified by means of an enzyme-linked-immunosorbent assay and/or denaturing gel electrophoresis (SDS-PAGE). IC50 values are calculated from percentage of inhibition of CVF-Bb activity as a function of test compound concentration.
Broadly, the IC50 is the concentration needed to halve the response being measured. As to `COc1cc(C)c2[nH]ccc2c1CN1CC[C@@H]2C[C@@H]1c1ccc(C(=O)O)cc1OCC/C=C\CO2` [Ex. 42, (1^2R,1^4R,Z)-1^1-((5-methoxy-7-methyl-1H-indol-4-yl)methyl)-3,9-dioxa-1(2,4)-piperidina-2(1,2)-benzenacyclononaphan-6-ene-2^4-carboxylic acid], it took 1060 nM to reach half-maximal inhibition (IC50). As for `CCO[C@H]1CCN(Cc2c(OC)cc(C)c3[nH]ccc23)[C@H](c2ccc(C(=O)NS(=O)(=O)CC)cc2)C1` [Ex. 44, 4-((2S,4S)-4-ethoxy-1-((5-methoxy-7-methyl-1H-indol-4-yl)methyl)piperidin-2-yl)-N-(ethylsulfonyl)benzamide], half-maximal inhibition (IC50) was put at 138 nM. In the case of `COc1cc(C)c2[nH]ccc2c1CN1CC[C@H]2C[C@H]1c1ccc(C(=O)NS(=O)(=O)C3(C)CC3)cc1OCCCCCCO2` [Ex. 46], the IC50 came to 311 nM. Regarding `COc1cc(C)c2[nH]ccc2c1CN1CC[C@H]2C[C@H]1c1ccc(C(=O)NS(=O)(=O)C(C)C)cc1OCCCCCCO2` [Ex. 47, (1^2S,1^4S)-N-(isopropylsulfonyl)-11-((5-methoxy-7-methyl-1H-indol-4-yl)methyl)-3,10-dioxa-1(2,4)-piperidina-2(1,2)-benzenacyclodecaphane-2^4-carboxamide], the IC50 came to 649 nM.

Still in this assay, the particulars now being: inhibition of CVF-Bb activity (3 nM CVF-Bb, Human Complement C3 substrate 1 μM, C3a quantified), PBS pH 7.4; read-out: IC50.
As to `COc1cc(C)c2[nH]ccc2c1CN1CC[C@H]2C[C@H]1c1ccc(C(=O)NS(C)(=O)=O)c3ccc(cc13)OCCC/C=C/CO2` [Ex. 54, (1^2S,1^4S,E)-1^1-((5-methoxy-7-methyl-1H-indol-4-yl)methyl)-N-(methylsulfonyl)-3,10-dioxa-1(2,4)-piperidina-2(1,7)-naphthalenacyclodecaphan-7-ene-2^4-carboxamide], the IC50 amounted to 303 nM.

Still in this assay, the particulars now being: read-out: IC50.
`COc1cc(C)c2[nH]ccc2c1CN1CC[C@H]2C[C@H]1c1ccc(C(=O)O)c3ccc(cc13)OCCC/C=C/CO2` [Ex. 48, (1^2S,1^4S,E)-1^1-((5-methoxy-7-methyl-1H-indol-4-yl)methyl)-3,10-dioxa-1(2,4)-piperidina-2(1,7)-naphthalenacyclodecaphan-7-ene-2^4-carboxylic acid]: the IC50 is 83.7 nM.

On to `COc1cc(C)c2[nH]ccc2c1CN1CC[C@H]2C[C@H]1c1ccc(C(=O)O)c3ccc(cc13)OCCCCCCO2` [Ex. 49, (1^2S,14S)-1^1-((5-methoxy-7-methyl-1H-indol-4-yl)methyl)-3,10-dioxa-1(2,4)-piperidina-2(1,7)-naphthalenacyclodecaphane-2^4-carboxylic acid], for which the IC50 amounted to 208 nM.

For the compound `COc1cc(C)c2[nH]ccc2c1CN1CC[C@H]2C[C@H]1c1ccc(C(=O)NS(=O)(=O)C3CC3)cc1OCCCCCCO2` [Ex. 50, (12S,14S)—N-(cyclopropylsulfonyl)-11-((5-methoxy-7-methyl-1H-indol-4-yl)methyl)-3,10-dioxa-1(2,4)-piperidina-2(1,2)-benzenacyclodecaphane-24-carboxamide], the IC50 is more than 10000 nM. For `COc1cc(C)c2c(ccn2C(=O)OC(C)(C)C)c1CN1CC[C@@H]2C[C@@H]1c1ccc(C(=O)O)c3ccc(cc13)OCCC/C=C/CO2` [Ex. 51, (1^2R,1^4R,E)-1^1-((1-(tert-butoxycarbonyl)-5-methoxy-7-methyl-1H-indol-4-yl)methyl)-3,10-dioxa-1(2,4)-piperidina-2(1,7)-naphthalenacyclodecaphan-7-ene-2^4-carboxylic acid], the IC50 was more than 10000 nM. The same measure, in the same setting: for `COc1cc(C)c2[nH]ccc2c1CN1CCC2CC1c1ccc(C(=O)O)c3ccc(cc13)OCCCCCCO2` (stereo not shown) [Ex. 52, (1^2R,1^4R)-1^1-((5-methoxy-7-methyl-1H-indol-4-yl)methyl)-3,10-dioxa-1(2,4)-piperidina-2(1,7)-naphthalenacyclodecaphane-2^4-carboxylic acid] the value was more than 10000 nM; for `COc1cc(C)c2[nH]ccc2c1CN1CC[C@H]2C[C@H]1c1ccc(-c3ccn[nH]3)cc1OCCCCCCO2` [Ex. 55, (1^2S,1^4S)-1^1-((5-methoxy-7-methyl-1H-indol-4-yl)methyl)-2^4-(1H-pyrazol-5-yl)-3,10-dioxa-1(2,4)-piperidina-2(1,2)-benzenacyclodecaphane], 2890 nM. For the compound `COc1cc(C)c2[nH]ccc2c1CN1CC[C@H]2C[C@H]1c1ccc(C(=O)NS(C)(=O)=O)c3ccc(cc13)OCCCCCCO2` [Ex. 56, (1^2S,1^4S)-1^1-((5-methoxy-7-methyl-1H-indol-4-yl)methyl)-N-(methylsulfonyl)-3,10-dioxa-1(2,4)-piperidina-2(1,7)-naphthalenacyclodecaphane-2^4-carboxamide], the IC50 was 375 nM.

On to `COc1cc(C)c2[nH]ccc2c1CN1CC[C@H]2C[C@H]1c1ccc(C(=O)NS(=O)(=O)c3ccccc3)cc1OCCCCCCO2` [Ex. 57, (1^2S,1^4S)-1^1-((5-methoxy-7-methyl-1H-indol-4-yl)methyl)-N-(phenylsulfonyl)-3,10-dioxa-1(2,4)-piperidina-2(1,2)-benzenacyclodecaphane-2^4-carboxamide], for which the IC50 stood at 153 nM. On to `COc1cc(C)c2[nH]ccc2c1CN1CC[C@H]2C[C@H]1c1ccc(C(=O)NS(C)(=O)=O)cc1/C=C/CCCCCCO2` [Ex. 58, (1^2S,1^4S, E)-1^1-((5-methoxy-7-methyl-1H-indol-4-yl)methyl)-N-(methylsulfonyl)-11-oxa-1(2,4)-piperidina-2(1,2)-benzenacycloundecaphan-3-ene-2^4-carboxamide], for which the IC50 was 1060 nM.

With `CCS(=O)(=O)NC(=O)c1ccc2c(c1)OCCCCCO[C@H]1CCN(Cc3c(OC)cc(C)c4[nH]ccc34)[C@H]2C1` [Ex. 59, (1^2S,1^4S)—N-(ethylsulfonyl)-1^1-((5-methoxy-7-methyl-1H-indol-4-yl)methyl)-3,9-dioxa-1(2,4)-piperidina-2(1,2)-benzenacyclononaphane-2^4-carboxamide], the IC50 stood at 244 nM. For `COc1cc(C)c2[nH]ccc2c1CN1CC[C@H]2C[C@H]1c1ccc(C(=O)NS(=O)(=O)C3CC3)cc1OCCCCCO2` [Ex. 60, (1^2S,1^4S)—N-(cyclopropylsulfonyl)-1^1-((5-methoxy-7-methyl-1H-indol-4-yl)methyl)-3,9-dioxa-1(2,4)-piperidina-2(1,2)-benzenacyclononaphane-2^4-carboxamide], the IC50 was found to be 231 nM. For the compound `COc1cc(C)c2[nH]ccc2c1CN1CC[C@H]2C[C@H]1c1ccc(C(=O)NS(=O)(=O)C3CCCC3)cc1OCCCCCO2` [Ex. 61, (1^2S,1^4S)—N-(cyclopentylsulfonyl)-1^1-((5-methoxy-7-methyl-1H-indol-4-yl)methyl)-3,9-dioxa-1(2,4)-piperidina-2(1,2)-benzenacyclononaphane-2^4-carboxamide], the IC50 was 331 nM. Regarding `COc1cc(C)c2[nH]ccc2c1CN1CC[C@H]2C[C@H]1c1ccc(C(=O)NS(=O)(=O)C3CCCC3)cc1OCCCCCCO2` [Ex. 62, (1^2S,1^4S)—N-(cyclopentylsulfonyl)-1^1-((5-methoxy-7-methyl-1H-indol-4-yl)methyl)-3,10-dioxa-1(2,4)-piperidina-2(1,2)-benzenacyclodecaphane-2^4-carboxamide], the IC50 was 293 nM. The same measure, in the same setting: for `COc1cc(C)c2[nH]ccc2c1CN1CC[C@H]2C[C@H]1c1ccc(C(=O)NO)cc1OCCCCCCO2` [Ex. 63, (1^2S,1^4S)—N-hydroxy-1^1-((5-methoxy-7-methyl-1H-indol-4-yl)methyl)-3,10-dioxa-1(2,4)-piperidina-2(1,2)-benzenacyclodecaphane-2^4-carboxamide] the value was 2450 nM; for `COc1cc(C)c2[nH]ccc2c1CN1CC[C@H]2C[C@H]1c1ccc(C(=O)O)cc1/C=C/CCCCCCCO2` [Ex. 64, (1^2S,1^4S,E)-1^1-((5-methoxy-7-methyl-1H-indol-4-yl)methyl)-12-oxa-1(2,4)-piperidina-2(1,2)-benzenacyclododecaphan-3-ene-2^4-carboxylic acid], 127 nM.

On to `COc1cc(C)c2[nH]ccc2c1CN1CC[C@H]2C[C@H]1c1ccc(C(=O)NS(C)(=O)=O)cc1CCCCCCCCO2` [Ex. 65, (1^2S,1^4S)-1^1-((5-methoxy-7-methyl-1H-indol-4-yl)methyl)-N-(methylsulfonyl)-11-oxa-1(2,4)-piperidina-2(1,2)-benzenacycloundecaphane-2^4-carboxamide], for which the IC50 worked out at 139 nM. On the same count and under the same terms, to `COc1cc(C)c2[nH]ccc2c1CN1CC[C@H]2C[C@H]1c1ccc(C(=O)NS(=O)(=O)C(C)C)cc1OCCCCCO2` [Ex. 66, (1^2S,1^4S)—N-(isopropylsulfonyl)-1^1-((5-methoxy-7-methyl-1H-indol-4-yl)methyl)-3,9-dioxa-1(2,4)-piperidina-2(1,2)-benzenacyclononaphane-2^4-carboxamide] belongs 411 nM. As for `COc1cc(C)c2[nH]ccc2c1CN1CC[C@H]2C[C@H]1c1ccc(C(=O)NS(=O)(=O)C3(C)CC3)cc1OCCCCCO2` [Ex. 67, (1^2S,1^4S)-1^1-((5-methoxy-7-methyl-1H-indol-4-yl)methyl)-N-((1-methylcyclopropyl)sulfonyl)-3,9-dioxa-1(2,4)-piperidina-2(1,2)-benzenacyclononaphane-2^4-carboxamide], the IC50 is 330 nM. On to `COc1cc(C)c2[nH]ccc2c1CN1CC[C@H]2C[C@H]1c1ccc(C(=O)NS(C)(=O)=O)cc1/C=C\CCCCCO2` [Ex. 68, (1^2S,1^4S,Z)-1^1-((5-methoxy-7-methyl-1H-indol-4-yl)methyl) —N-(methylsulfonyl)-10-oxa-1(2,4)-piperidina-2(1,2)-benzenacyclodecaphan-3-ene-24-carboxamide], for which the half-inhibitory concentration (IC50) was found to be 674 nM. For the compound `COc1cc(C)c2[nH]ccc2c1CN1CC[C@H]2C[C@H]1c1ccc(C(=O)NS(C)(=O)=O)cc1/C=C/CCCCCO2` [Ex. 69, (1^2S,1^4S,E)-1^1-((5-methoxy-7-methyl-1H-indol-4-yl)methyl)-N-(methylsulfonyl)-10-oxa-1(2,4)-piperidina-2(1,2)-benzenacyclodecaphan-3-ene-2^4-carboxamide], the IC50 came to 581 nM.
